According to the supplement of paper PMC11061612:

Key:
Assay in all cases: Bliss excess, mean over the matrix (fraction); higher = more synergy
[1] = system: SW1710 (Bladder Carcinoma)
Procedure, shortened: (§1)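 Cell lines grown in DMEM/F12 or RPMI with 10% FBS were plated in 1536-well plates and held 24 hours at 37°C, 5% CO2 before 72 hours of exposure to two-drug dose matrices, with DMSO typically at 0.2%. CellTiter-Glo 2.0 luminescence gave viability, which was converted to inhibition. Vehicle wells were set to 0 and blank wells to 1. Combination Emax is the second-highest inhibition in the matrix, and Bliss excess is the observed combination effect minus the expected EA + EB − EA·EB, where EA and EB are the single-agent effects.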

[2] = system: ESS-1 (Other Solid Carcinomas)
Procedure, shortened: as §1

[3] = system: NUGC-4 (Gastric Carcinoma)
Procedure, shortened: as §1

[4] = system: A673 (Ewing's Sarcoma)
Procedure, shortened: as §1

[5] = system: SNU-449 (Hepatocellular Carcinoma)
Procedure, shortened: as §1

[6] = system: ALL-PO (B-Lymphoblastic Leukemia)
Procedure, shortened: as §1

[7] = system: BPH-1 (Non-Cancerous)
Procedure, shortened: as §1

[8] = system: HH (T-Cell Non-Hodgkin's Lymphoma)
Procedure, shortened: as §1

[9] = system: YAPC (Pancreatic Carcinoma)
Procedure, shortened: as §1

[10] = system: MPP-89 (Mesothelioma)
Procedure, shortened: as §1

[11] = system: EW-11 (Ewing's Sarcoma)
Procedure, shortened: as §1

[12] = system: WSU-NHL (B-Cell Non-Hodgkin's Lymphoma)
Procedure, shortened: as §1

[13] = system: NCI-H209 (Small Cell Lung Carcinoma)
Procedure, shortened: as §1

[14] = system: NCI-H1568 (Lung Adenocarcinoma)
Procedure, shortened: as §1

[15] = system: KYAE-1 (Esophageal Adenocarcinoma)
Procedure, shortened: as §1

[16] = system: KS-1 (Glioblastoma)
Procedure, shortened: as §1

[17] = system: LOXIMVI (Melanoma)
Procedure, shortened: as §1

[18] = system: CAL-72 (Osteosarcoma)
Procedure, shortened: as §1

[19] = system: OE21 (Esophageal Squamous Cell Carcinoma)
Procedure, shortened: as §1

[20] = system: SAS (Oral Cavity Carcinoma)
Procedure, shortened: as §1

Compound	Bliss excess [1]	Bliss excess [2]	Bliss excess [3]	Bliss excess [4]	Bliss excess [5]	Bliss excess [6]	Bliss excess [7]	Bliss excess [8]	Bliss excess [9]	Bliss excess [10]	Bliss excess [11]	Bliss excess [12]	Bliss excess [13]	Bliss excess [14]	Bliss excess [15]	Bliss excess [16]	Bliss excess [17]	Bliss excess [18]	Bliss excess [19]	Bliss excess [20]
Cc1cc2ncnn2cc1Nc1ncc2c(n1)n(C1CCOCC1)c(=O)n2C [AZD7648] + O=C(c1cc(Cc2n[nH]c(=O)c3ccccc23)ccc1F)N1CCN(C(=O)C2CC2)CC1 [Olaparib] (first compound max 10 µM, 7x7, partner max 10 µM)	-0.0377	-0.0721	-0.049	-0.015	-0.0525	-0.0202	0.0337	-0.0269	-0.0521	-0.0163	-0.0826	-0.057	0.0055	-0.0307	-0.0362	-0.0355	-0.0577	-0.0093	-0.088	-0.0245
Cc1nc(Nc2ncc(C(=O)Nc3c(C)cccc3Cl)s2)cc(N2CCN(CCO)CC2)n1 [Dasatinib] + CC(=O)Nc1cccc(-n2c(=O)n(C3CC3)c(=O)c3c(Nc4ccc(I)cc4F)n(C)c(=O)c(C)c32)c1 [Trametinib] (first compound max 2 µM, 7x7, partner max 1 µM)	-0.0546	-0.0417	0.007	-0.075	-0.0631	0.0238	-0.0801	-0.0188	0.0605	-0.0661	-0.0404	0.0024	-0.039	0.118	-0.0114	-0.0429	0.0175	-0.0409	-0.0561	0.0083
C[C@@H](c1ccc2nccn2c1)n1nnc2ncc(-c3cnn(C)c3)nc21 [Savolitinib] + CC1(C)CCC(CN2CCN(c3ccc(C(=O)NS(=O)(=O)c4ccc(NCC5CCOCC5)c([N+](=O)[O-])c4)c(Oc4cnc5[nH]ccc5c4)c3)CC2)=C(c2ccc(Cl)cc2)C1 [Venetoclax] (first compound max 1 µM, 7x7, partner max 1 µM)	-0.0561	-0.0241	-0.0817	-0.0673	-0.0358	0.035	-0.0928	-0.0712	-0.0232	-0.0566	-0.0096	-0.0193	-0.0361	-0.0575	-0.014	-0.0476	-0.0355	-0.02	-0.0443	-0.0388
Cc1cc2ncnn2cc1Nc1ncc2c(n1)n(C1CCOCC1)c(=O)n2C [AZD7648] + C=CCn1c(=O)c2cnc(Nc3ccc(N4CCN(C)CC4)cc3)nc2n1-c1cccc(C(C)(C)O)n1 [AZD1775] (first compound max 10 µM, partner max 1 µM)	0.0692	0.0525	-0.0417	-0.0306	0.0041	0.0488	0.0321	-0.0461	0.0325	0.0215	-0.029	0.0072	-0.0177	-0.0763	-0.048	0.0297	-0.0123	-0.0194	-0.0013	0.0079
COc1nnc2ccc(N3CCC(c4ccc(OCCN5CCN(C)C(=O)[C@H]5C)cc4)CC3)nn12 [AZD5153] + CN(CC[C@H](CSC1=CC=CC=C1)NC2=C(C=C(C=C2)S(=O)(=O)NC(=O)C3=CC=C(C=C3)N4CCC(CC4)[C@H](C5=CC=CC=C5C6=CC=C(C=C6)Cl)O)S(=O)(=O)C(F)(F)F)CCO [AZD4320] (first compound max 1 µM, 7x7, partner max 1 µM)	–	–	0.0299	–	–	0.0079	0.0728	–	–	–	–	–	0.01	-0.044	–	–	–	–	0.0129	–
CN(CCO)CC[C@H](CSc1ccccc1)Nc1ccc(S(=O)(=O)NC(=O)c2ccc(N3CCC([C@@H](O)c4ccccc4-c4ccc(Cl)cc4)CC3)cc2)cc1S(=O)(=O)C(F)(F)F [AZD4320] + C[C@@H](Nc1cc(F)cc(F)c1)c1cc(C(=O)N(C)C)cc2c(=O)cc(N3CCOCC3)oc12 [AZD8186] (first compound max 1 µM, 7x7, partner max 3 µM)	0.0263	-0.01	0.0385	0.0149	0.0093	0.0509	-0.0541	0.012	-0.0258	0.0212	-0.0358	-0.037	0.0529	-0.0013	0.011	-0.0166	-0.0239	–	0.0243	0.0033
COc1cc2ncnc(Nc3ccc(F)c(Cl)c3)c2cc1OCCCN1CCOCC1 [Gefitinib] + CC(C)n1c(=O)n(C)c2cnc3cc(F)c(-c4ccc(OCCCN5CCCCC5)nc4)cc3c21 [AZD1390] (first compound max 10 µM, 7x7, partner max 0.3 µM)	-0.041	-0.0518	-0.0491	-0.047	-0.0529	-0.0558	-0.0347	-0.0263	-0.0233	-0.05	-0.0563	-0.0499	-0.0831	-0.0412	-0.0421	-0.0599	-0.0384	-0.0555	-0.0696	-0.0454
Cc1cc2ncnn2cc1Nc1ncc2c(n1)n(C1CCOCC1)c(=O)n2C [AZD7648] + CCN(CCO)CCCOc1ccc2c(Nc3cc(CC(=O)Nc4cccc(F)c4)[nH]n3)ncnc2c1 [AZD2811] (first compound max 10 µM, 7x7, partner max 1 µM)	0.0167	0.128	-0.0257	-0.0672	0.0117	0.0236	0.0033	-0.0598	0.0032	0.0023	-0.0298	-0.0635	0.0054	-0.0172	-0.002	-0.0405	-0.0125	0.0448	0.0379	0.0058
CN(CCO)CC[C@H](CSc1ccccc1)Nc1ccc(S(=O)(=O)NC(=O)c2ccc(N3CCC([C@@H](O)c4ccccc4-c4ccc(Cl)cc4)CC3)cc2)cc1S(=O)(=O)C(F)(F)F [AZD4320] + CCN(CCO)CCCOc1ccc2c(Nc3cc(CC(=O)Nc4cccc(F)c4)[nH]n3)ncnc2c1 [AZD2811] (first compound max 1 µM, 7x7, partner max 1 µM)	-0.0291	0.21	-0.0407	0.0819	-0.0649	-0.009	-0.0079	-0.0135	-0.0464	0.0246	-0.0439	-0.0295	0.184	-0.0102	-0.0149	0.0261	0.0896	0.0528	-0.0212	-0.037
N#Cc1cnc(Nc2cc(NC[C@H]3CNCCO3)c(C(F)(F)F)cn2)cn1 [SRA737] + C=CCn1c(=O)c2cnc(Nc3ccc(N4CCN(C)CC4)cc3)nc2n1-c1cccc(C(C)(C)O)n1 [AZD1775] (first compound max 10 µM, partner max 1 µM)	0.0292	0.12	–	0.0914	0.0354	–	–	0.0569	0.0265	0.041	0.0992	0.187	–	–	0.0021	0.0472	0.0086	0.0934	–	0.0236
C[C@@H](c1ccc2nccn2c1)n1nnc2ncc(-c3cnn(C)c3)nc21 [Savolitinib] + Cc1c2c(nn1C)CSCc1cc(n(C)n1)CSc1cc(c3ccccc3c1)OCCCc1c(C(=O)O)n(C)c3c-2c(Cl)ccc13 [AZD5991] (first compound max 1 µM, 7x7, partner max 1 µM)	-0.0351	-0.0432	-0.0348	0.0471	-0.0432	-0.0254	-0.0457	-0.0258	-0.0425	-0.0423	0.0361	-0.0467	-0.0187	-0.05	0.0163	-0.0509	-0.0096	-0.0077	-0.0479	-0.0341
Cc1cc2ncnn2cc1Nc1ncc2c(n1)n(C1CCOCC1)c(=O)n2C [AZD7648] + C[C@@H]1COCCN1C2=NC(=NC(=C2)C3(CC3)[S@](=N)(=O)C)C4=C5C=CNC5=NC=C4 [AZD6738] (first compound max 10 µM, 7x7, partner max 10 µM)	0.0067	-0.0161	-0.0673	-0.0295	0.0318	0.0381	-0.0251	0.0284	0.0058	-0.0034	0.0104	-0.0181	-0.0155	0.0383	0.0399	-0.0011	-0.0019	0.0292	-0.0793	0.0211
CC(=O)c1c(C)c2cnc(Nc3ccc(N4CCNCC4)cn3)nc2n(C2CCCC2)c1=O [Palbociclib] + CN(CC[C@H](CSC1=CC=CC=C1)NC2=C(C=C(C=C2)S(=O)(=O)NC(=O)C3=CC=C(C=C3)N4CCC(CC4)[C@H](C5=CC=CC=C5C6=CC=C(C=C6)Cl)O)S(=O)(=O)C(F)(F)F)CCO [AZD4320] (first compound max 10 µM, 7x7, partner max 1 µM)	–	–	-0.0067	–	–	0.0126	-0.0818	–	–	–	–	–	0.0266	-0.0747	–	–	–	–	0.0269	–
N#Cc1cnc(Nc2cc(NC[C@H]3CNCCO3)c(C(F)(F)F)cn2)cn1 [SRA737] + CCc1c2c(nc3ccc(O)cc13)-c1cc3c(c(=O)n1C2)COC(=O)[C@]3(O)CC [SN-38] (first compound max 10 µM, 7x7, partner max 0.3 µM)	0.0736	-0.0091	–	-0.0511	0.0341	–	–	0.017	-0.041	0.0191	-0.132	-0.0324	–	–	0.0142	-0.0798	-0.0354	0.0489	–	-0.0333
N#Cc1cnc(Nc2cc(NC[C@H]3CNCCO3)c(C(F)(F)F)cn2)cn1 [SRA737] + O=c1[nH]cc(F)c(=O)[nH]1 [5-Fluorouracil] (first compound max 10 µM, 7x7, partner max 20 µM)	-0.0212	-0.0297	–	0.0354	-0.0175	–	–	0.0123	0.0062	0.0355	-0.0246	0.0005	–	–	0.0202	-0.0464	-0.0241	0.0294	–	-0.0104
